Results as given in US20220041606A1, “POSITIVE ALLOSTERIC MODULATORS OF THE MUSCARINIC ACETYLCHOLINE RECEPTOR M1” (Vanderbilt University, priority 2020, published 2022).

Key:
human mAChR M1 [1] = biological target: T1, human mAChR M1 (Homo sapiens, UniProt P11229); test: mAChR M1 cell-based functional assay (calcium mobilization), agonist activity upon compound addition; conditions: CHO-K1 cells expressing hM1; for EC50: compound alone, before acetylcholine addition; for Emax: relative to the maximum for acetylcholine
T1 construct: host or cells: CHO-K1 cells (ATCC), stably transfected using Lipofectamine2000
T1 sequence (P11229 1-460): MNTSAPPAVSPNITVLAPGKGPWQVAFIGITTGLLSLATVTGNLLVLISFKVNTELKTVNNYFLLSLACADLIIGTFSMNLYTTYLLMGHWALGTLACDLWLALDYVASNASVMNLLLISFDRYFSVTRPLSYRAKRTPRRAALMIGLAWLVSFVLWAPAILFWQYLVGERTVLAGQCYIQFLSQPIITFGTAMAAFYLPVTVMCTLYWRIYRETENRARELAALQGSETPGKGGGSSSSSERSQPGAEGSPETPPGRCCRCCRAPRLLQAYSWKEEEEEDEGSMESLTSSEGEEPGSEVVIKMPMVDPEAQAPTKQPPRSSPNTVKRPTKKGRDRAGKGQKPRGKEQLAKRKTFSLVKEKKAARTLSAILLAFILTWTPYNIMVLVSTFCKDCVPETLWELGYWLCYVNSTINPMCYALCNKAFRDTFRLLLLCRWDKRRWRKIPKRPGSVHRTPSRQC
Summary of the method: (§1)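 Fluorescence ratio calcium read-out (Fluo-4 AM, FDSS 6000) in human M1-expressing CHO-K1 cells. Agonist activity taken as concentration-dependent rise after compound addition; potentiation as enhancement of a subsequent EC20 acetylcholine challenge. Curves from 11-point threefold dilutions fitted by four-parameter logistic; Emax expressed versus acetylcholine maximum.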

human mAChR M1 [2] = biological target: T1, human mAChR M1; test: mAChR M1 cell-based functional assay (calcium mobilization), PAM activity: increase in the EC20 acetylcholine response; conditions: CHO-K1 cells expressing hM1; potentiation of EC20 acetylcholine response
Summary of the method: as §1

| Compound | EC50 (human mAChR M1 [1]) | Emax (human mAChR M1 [1]) | EC50 (human mAChR M1 [2]) | Emax (human mAChR M1 [2]) |
| --- | --- | --- | --- | --- |
| Cc1cc(C)cc(-c2ccc(Cn3cc(C(=O)N[C@H]4CCOC[C@@H]4O)c4ncccc4c3=O)c(F)c2)c1 [Compound A30, 6-((3-fluoro-3′,5′-dimethyl-[1,1′-biphenyl]-4-yl)methyl)-N-((3R,4S)-3-hydroxytetrahydro-2H-pyran-4-yl)-5-oxo-5,6-dihydro-1,6-naphthyridine-8-carboxamide] | > 10 µM | < 5% | 4.61 µM | 47% |
| Cn1cc2c(-c3cc(F)c(Cn4cc(C(=O)N[C@H]5CCOC[C@@H]5O)c5nccnc5c4=O)c(F)c3)cccc2n1 [Compound A66, 6-(2,6-difluoro-4-(2-methyl-2H-indazol-4-yl)benzyl)-N-((3R,4S)-3-hydroxytetrahydro-2H-pyran-4-yl)-5-oxo-5,6-dihydropyrido[3,4-b]pyrazine-8-carboxamide] | 5 µM | 46% | 0.28 µM | 72% |
| Cn1cc(-c2ccc(Cn3cc(C(=O)N[C@H]4CCOC[C@@H]4O)c4ncccc4c3=O)cc2)cn1 [Compound A58, N-((3R,4S)-3-hydroxytetrahydro-2H-pyran-4-yl)-6-(4-(1-methyl-1H-pyrazol-4-yl)benzyl)-5-oxo-5,6-dihydro-1,6-naphthyridine-8-carboxamide] | 5.27 µM | 40% | 0.37 µM | 68% |
| Cc1nc(-c2ccc(Cn3cc(C(=O)N[C@H]4CCOC[C@@H]4O)c4ncccc4c3=O)cc2)co1 [Compound A19, N-((3R,4S)-3-hydroxytetrahydro-2H-pyran-4-yl)-6-(4-(2-methyloxazol-4-yl)benzyl)-5-oxo-5,6-dihydro-1,6-naphthyridine-8-carboxamide] |  | 20% | 2.49 µM | 67% |
| Cn1cc2c(-c3cc(F)c(Cn4cc(C(=O)N[C@H]5CCOC[C@@H]5O)c5ncccc5c4=O)c(F)c3)cccc2n1 [Compound A21, 6-(2,6-difluoro-4-(2-methyl-2H-indazol-4-yl)benzyl)-N-((3R,4S)-3-hydroxytetrahydro-2H-pyran-4-yl)-5-oxo-5,6-dihydro-1,6-naphthyridine-8-carboxamide] | 1.23 µM | 31% | 0.019 µM | 72% |
| Cn1cc(-c2ccc(Cn3cc(C(=O)N[C@H]4CCC[C@@H]4O)c4ncccc4c3=O)c(F)c2)cn1 [Compound A8, 6-(2-fluoro-4-(1-methyl-1H-pyrazol-4-yl)benzyl)-N-((1S,2S)-2-hydroxycyclopentyl)-5-oxo-5,6-dihydro-1,6-naphthyridine-8-carboxamide] | > 10 µM | < 5% | 1.29 µM | 83% |
| Cc1cc(-c2ccc(Cn3cc(C(=O)N[C@H]4CCCC[C@@H]4O)c4ncccc4c3=O)c(F)c2)ccn1 [Compound A27, 6-(2-Fluoro-4-(2-methylpyridin-4-yl)benzyl)-N-((1S,2S)-2-hydroxycyclohexyl)-5-oxo-5,6-dihydro-1,6-naphthyridine-8-carboxamide] | > 10 µM | 6% | 0.86 µM | 74% |
| O=C(N[C@H]1CCOC[C@@H]1O)c1cn(Cc2c(F)cc(-c3cncs3)cc2F)c(=O)c2cccnc12 [Compound A49, 6-(2,6-Difluoro-4-(thiazol-5-yl)benzyl)-N-((3R,4S)-3-hydroxytetrahydro-2H-pyran-4-yl)-5-oxo-5,6-dihydro-1,6-naphthyridine-8-carboxamide] | > 10 µM | < 5% | 0.98 µM | 65% |
| Cc1cncc(-c2cc(F)c(Cn3cc(C(=O)N[C@H]4CCCC[C@@H]4O)c4ncccc4c3=O)c(F)c2)c1 [Compound A43, 6-(2,6-difluoro-4-(5-methylpyridin-3-yl)benzyl)-N-((1S,2S)-2-hydroxycyclohexyl)-5-oxo-5,6-dihydro-1,6-naphthyridine-8-carboxamide] | > 10 µM | < 5% | 0.64 µM | 51% |
| O=C(N[C@H]1CCC[C@@H]1O)c1cn(Cc2ccc(-n3cccn3)cc2)c(=O)c2nccnc12 [Compound A61, 6-(4-(1H-pyrazol-1-yl)benzyl)-N-((1S,2S)-2-hydroxycyclopentyl)-5-oxo-5,6-dihydropyrido[3,4-b]pyrazine-8-carboxamide] | > 10 µM | < 5% | ≥ 10 µM | 33% |
| Cc1cc(-c2ccc(Cn3cc(C(=O)N[C@H]4CCC[C@@H]4O)c4ncccc4c3=O)c(F)c2)ccn1 [Compound A28, 6-(2-fluoro-4-(2-methylpyridin-4-yl)benzyl)-N-((1S,2S)-2-hydroxycyclopentyl)-5-oxo-5,6-dihydro-1,6-naphthyridine-8-carboxamide] | > 10 µM | < 5% | 1.14 µM | 54% |

Other lines, results leading:

| EC50 (human mAChR M1 [1]) | Emax (human mAChR M1 [1]) | EC50 (human mAChR M1 [2]) | Emax (human mAChR M1 [2]) | Compound |
| --- | --- | --- | --- | --- |
| > 10 µM | < 5% | > 10 µM | 51% | Cn1cc(-c2ccc(Cn3cc(C(=O)N[C@H]4CCC[C@@H]4O)c4occc4c3=O)c(F)c2)cn1 [Compound D14, 5-(2-fluoro-4-(1-methyl-1H-pyrazol-4-yl)benzyl)-N-((1S,2S)-2-hydroxycyclopentyl)-4-oxo-4,5-dihydrofuro[3,2-c]pyridine-7-carboxamide] |
| 2.96 µM | 64% | 0.027 µM | 70% | Cn1cc(-c2ccc(Cn3cc(C(=O)N[C@H]4CCCCC[C@@H]4O)c4nccn4c3=O)c(F)c2)cn1 [Compound B15, 6-(2-fluoro-4-(1-methyl-1H-pyrazol-4-yl)benzyl)-N-((1S,2S)-2-hydroxycycloheptyl)-5-oxo-5,6-dihydroimidazo[1,2-c]pyrimidine-8-carboxamide] |
| > 10 µM | < 5% | 3.89 µM | 57% | Cn1cc2c(-c3cc(F)c(Cn4cc(C(=O)N[C@H]5CC[C@@H]5O)c5nccnc5c4=O)c(F)c3)cccc2n1 [Compound A69, 6-(2,6-difluoro-4-(2-methyl-2H-indazol-4-yl)benzyl)-N-((1S,2S)-2-hydroxycyclobutyl)-5-oxo-5,6-dihydropyrido[3,4-b]pyrazine-8-carboxamide] |
| > 10 µM | < 5% | ≥ 10 µM | 44% | Cc1cnn(C)c1-c1ccc(Cn2cc(C(=O)N[C@H]3CCOC[C@@H]3O)c3nccn3c2=O)c(F)c1 [Compound B34, 6-(4-(1,4-dimethyl-1H-pyrazol-5-yl)-2-fluorobenzyl)-N-((3R,4S)-3-hydroxytetrahydro-2H-pyran-4-yl)-5-oxo-5,6-dihydroimidazo[1,2-c]pyrimidine-8-carboxamide] |
| > 10 µM | < 5% | 6.05 µM | 82% | Cn1ccc(-c2ccc(Cn3cc(C(=O)N[C@H]4CCCC[C@@H]4O)c4occc4c3=O)c(F)c2)n1 [Compound D7, 5-(2-fluoro-4-(1-methyl-1H-pyrazol-3-yl)benzyl)-N-((1S,2S)-2-hydroxycyclohexyl)-4-oxo-4,5-dihydrofuro[3,2-c]pyridine-7-carboxamide] |
| > 10 µM | < 5% | ≥ 10 µM | 40% | Cn1cc2c(-c3cc(F)c(Cn4cc(C(=O)N[C@H]5CCOC[C@@H]5O)c5ncncc5c4=O)c(F)c3)cccc2n1 [Compound A84, 6-(2,6-difluoro-4-(2-methyl-2H-indazol-4-yl)benzyl)-N-((3R,4S)-3-hydroxytetrahydro-2H-pyran-4-yl)-5-oxo-5,6-dihydropyrido[4,3-d]pyrimidine-8-carboxamide] |
| > 10 µM | < 5% | ≥ 10 µM | 41% | Cc1cn2c(=O)n(Cc3ccc(-c4cnn(C)c4)cc3F)cc(C(=O)N[C@H]3CCCC[C@@H]3O)c2n1 [Compound B24, 6-(2-fluoro-4-(1-methyl-1H-pyrazol-4-yl)benzyl)-N-((1S,2S)-2-hydroxycyclohexyl)-2-methyl-5-oxo-5,6-dihydroimidazo[1,2-c]pyrimidine-8-carboxamide] |
| > 10 µM | < 5% | ≥ 10 µM | 26% | CC[C@H](C)[C@@H](CO)NC(=O)c1cn(Cc2ccc(-c3cnn(C)c3)cc2F)c(=O)c2nccnc12 [Compound A83, 6-(2-fluoro-4-(1-methyl-1H-pyrazol-4-yl)benzyl)-N-((2S,3S)-1-hydroxy-3-methylpentan-2-yl)-5-oxo-5,6-dihydropyrido[3,4-b]pyrazine-8-carboxamide] |
| > 10 µM | < 5% | ≥ 10 µM | 30% | Cc1cn2c(=O)n(Cc3ccc(-n4cccn4)cc3)cc(C(=O)N[C@H]3CCCC[C@@H]3O)c2n1 [Compound B28, 6-(4-(1H-pyrazol-1-yl)benzyl)-N-((1S,2S)-2-hydroxycyclohexyl)-2-methyl-5-oxo-5,6-dihydroimidazo[1,2-c]pyrimidine-8-carboxamide] |
| > 10 µM | 8% | 2.02 µM | 75% | Cn1cc(-c2ccc(Cn3cc(C(=O)N[C@H]4CCCCC[C@@H]4O)c4occc4c3=O)c(F)c2)cn1 [Compound D16, 5-(2-fluoro-4-(1-methyl-1H-pyrazol-4-yl)benzyl)-N-((1S,2S)-2-hydroxycycloheptyl)-4-oxo-4,5-dihydrofuro[3,2-c]pyridine-7-carboxamide] |
